This is an account of results in patent US8614178B2, “Pharmaceutical composition for treatment of dry eye syndrome” (Novaliq GmbH, priority 2009, dated 2013).

Read-outs that look alike come from different tables or passages of the source.

Data set [1] relates to Sjögren syndrome patients. Particulars: oral, clinical studies; cited from earlier work.
The nature of data set [2]: Refractive index determination. Particulars: neat SFA.
The nature of data set [3]: Droplet size (weight and volume) from three droppers. It is filed as physicochemical. Conditions: 25° C.; for Droplet volume: calculated; for Droplet weight: mean ± SD. As for the experimental part: The droplet size of selected SFA's in terms of weight and volume of droplets from three droppers was determined and compared to that of purified water. The devices used for dispensing the droplets were (a) a 2 mL Pasteur pipette (wall thickness 0.53 mm; external tip diameter: 1.50 mm; length: 150 mm) made of glass, (b) a 20 G (0.9 mm×50 mm) injection needle, and (c) a dropper from a commercial eye drops product (Hylo-Vision). The droplet weights were measured at 25° C. using a laboratory balance; the volumes were calculated. Each test was performed 10 times.

The subject of data set [4] is rabbit eyes. The data set can be described thus: Ex-vivo eye irritation test (EVEIT), abraded cornea.
Procedure: (§1) The eyes were fastened in chambers coupled micropump systems which continuously supplied the eyes with cultivation medium (Minimal Essential Medium, MEM T031-05) without fetal calf serum. The vitality of the eyes was monitored by regularly measuring the concentration of lactate and glucose in the chamber eluate. The corneal surface of the eyes was damaged by abrasion, using a dental ceramic abrasive (638XF, Meisinger). For each eye, four lesions of 3.0 to 4.5 mm^2 were prepared.
(§2) To evaluate the effect of F4H5 and F4H5 with 1 wt.-% ethanol on the cornea, an amount of approx. 0.25 to 0.50 μl of the respective test substance was dropped onto the centre of a cornea once every hour over a period of 12 hours, followed by a 12 hour resting period in which the cornea was submersed in culture medium to simulate a closed lid during a night phase. In addition, an aqueous solution of hyaluronic acid (0.1 wt.-%) was used as reference (hyaluronic acid is know to enhance the restoration of the corneal surface after damage), culture medium was used as control, and aqueous benzalkonium chloride solution (0.01 wt.-%) was used as negative control. Each test was performed over a period of 3 days. The effects were observed by optical coherence tomography (OCT), by digitally determining the dimensions of the lesions after staining with fluorescein, and finally by a histological evaluation of the corneal epithelium and endothelium at the end of each experiment.
(§3) Each of the two vehicles was tested in two separate runs.
Data set [5] relates to rabbit eyes.
Procedure: as §1, §2, §3

For the molecule `CC1OC2(CS1)CN1CCC2CC1` (stereo not shown) [Cevimeline], the “Effect on DED symptoms” value in data set [1] was “effective in the management of symptoms associated with keratoconjunctivitis sicca of the Sjögren type”.

The molecule `CCCCC(F)(F)C(F)(F)C(F)(F)C(F)(F)F` [Example F4H4] displayed a Refractive index in data set [2] of 1.308.

As to `CCCCCC(F)(F)C(F)(F)C(F)(F)C(F)(F)F` [Example F4H5], the Refractive index in data set [2] came to 1.3204. Further, the values for the Droplet volume in data set [3] (Eye dropper (Hylo-Vision)), in data set [3] (Glass pipette) and in data set [3] (Injection needle 20 G) were 9.6 ± 0.2 µL, 4.7 ± 0.3 µL and 2.0 ± 0.3 µL, respectively. In addition, the Droplet weight is reported as 12.4 ± 0.2 mg in data set [3] (Eye dropper (Hylo-Vision)); 6.0 ± 0.4 mg in data set [3] (Glass pipette, 10 tests); 2.6 ± 0.4 mg in data set [3] (Injection needle 20 G). Moreover, in the data set with rabbit eyes [4] (OCT imaging), the “Penetration into the cornea” value is recorded as “no indication of penetration of F4H5 into the cornea”. The “Morphological and histological evaluation of cornea” value in the data set on rabbit eyes [4] (end of test) is “had not only healed very well, but were also entirely clear at the end of the tests, with healthy and smooth surface morphology”. In addition, the Physiological tolerability result with rabbit eyes [4] (in words) is reported as “better tolerated than culture medium”.

For `CCCCCCC(F)(F)C(F)(F)C(F)(F)C(F)(F)F` [Example F4H6], in data set [2], the Refractive index is on record as 1.334.

With `CCCCCCCC(F)(F)C(F)(F)C(F)(F)C(F)(F)F` [Example F4H7], the Refractive index in data set [2] turned out to be 1.3357.

In turn, `CCCCCCCCC(F)(F)C(F)(F)C(F)(F)C(F)(F)F` [Example F4H8] showed a Refractive index in data set [2] of 1.348.

In data set [2], `CCC(F)(F)C(F)(F)C(F)(F)C(F)(F)C(F)(F)C(F)(F)F` [Example F6H2] had a Refractive index of 1.295.

In the case of `CCCCC(F)(F)C(F)(F)C(F)(F)C(F)(F)C(F)(F)C(F)(F)F` [Example F6H4], the Refractive index in data set [2] is recorded as 1.306.

In data set [2], `CCCCCCC(F)(F)C(F)(F)C(F)(F)C(F)(F)C(F)(F)C(F)(F)F` [Example F6H6] yielded a Refractive index of 1.3224.

The molecule `CCCCCCCC(F)(F)C(F)(F)C(F)(F)C(F)(F)C(F)(F)C(F)(F)F` [Example F6H7] came in with a Refractive index in data set [2] of 1.3366.

Take `CCCCCCCCC(F)(F)C(F)(F)C(F)(F)C(F)(F)C(F)(F)C(F)(F)F` [Example F6H8]: the Refractive index in data set [2] is given as 1.3432. Moreover, the Droplet volume was 10.3 ± 0.3 µL in data set [3] (Eye dropper (Hylo-Vision)), 5.0 ± 0.4 µL in data set [3] (Glass pipette) and 2.5 ± 0.1 µL in data set [3] (Injection needle 20 G). The Droplet weight is listed as 13.7 ± 0.4 mg in data set [3] (Eye dropper (Hylo-Vision)); 6.6 ± 0.6 mg in data set [3] (Glass pipette, 10 tests); 3.4 ± 0.2 mg in data set [3] (Injection needle 20 G). In addition, the “Healing of corneal lesions” value in the data set on rabbit eyes [5] is recorded as “all lesions healed fully during the experimental time”.

In turn, `CCCCCCCCCC(F)(F)C(F)(F)C(F)(F)C(F)(F)C(F)(F)C(F)(F)F` [Example F6H9] came in with a Refractive index in data set [2] of 1.3494.

Consider `O` [Water, water, reference compound], for which the Droplet volume was 36.1 ± 2.2 µL in data set [3] (Eye dropper (Hylo-Vision)), 31.3 ± 1.4 µL in data set [3] (Glass pipette) and 11.1 ± 0.9 µL in data set [3] (Injection needle 20 G). Besides, the Droplet weight in data set [3] (Eye dropper (Hylo-Vision)) is on record as 36.0 ± 2.2 mg; in data set [3] (Glass pipette, 10 tests) it was 31.2 ± 1.4 mg; in data set [3] (Injection needle 20 G) it was 11.0 ± 0.9 mg.

For the molecule `CC[C@@H]1C(=O)OC[C@@H]1Cc1cncn1C` [pilocarpine], the “Effect on DED symptoms” value in data set [1] is listed as “significantly improved DED symptoms”.

As for benzalkonium chloride [BAC], in the data set with rabbit eyes [5], the “Healing of corneal lesions” value is “rapid growth of the lesions eventually leading to a complete disintegration of the corneal epithelium”; the “Morphological and histological evaluation of cornea” value is reported as “complete disintegration of the corneal epithelium, but also a major impairment of the complete cornea even including the endothelium”.
